The text below walks through data of ChEMBL document CHEMBL4196029, “New MD2 inhibitors derived from curcumin with improved anti-inflammatory activity” (Eur J Med Chem, 2018).

The inhibition is the change of the read-out against control, counted positive when it falls.

Active and inactive are the calls of the source. No cut-off for these calls is given here.

The nature of data set [1]: Chemical stability in pH 7.4 phosphate buffer at 20 uM measured at 5 mins time intervals for 25 mins by UV absorbance spectroscopic method. The class given is physicochemical. The following applies: pH 7.4, 25 min.
Data set [2] relates to Peritoneal macrophage. In words: Anti-inflammatory activity in C57BL/6 mouse primary peritoneal macrophages assessed as inhibition of LPS-induced IL-6 secretion at 1 to 10 uM preincubated for 30 mins followed by LPS addition measured after 24 hrs by ELISA. The data set is classed as functional, cell-based. In general terms: In an ELISA, binding on a coated surface is turned into a signal by an enzyme label.

The subject of data set [3] is Peritoneal macrophage. The experiment in a line: Anti-inflammatory activity in C57BL/6 mouse primary peritoneal macrophages assessed as inhibition of LPS-induced IL-6 secretion at 2.5 uM preincubated for 30 mins followed by LPS addition measured after 24 hrs by ELISA relative to control. The class given is functional. The settings on record: C57BL/6, Peritoneal macrophage.

Data set [4] concerns Peritoneal macrophage. The experiment in a line: Anti-inflammatory activity in C57BL/6 mouse primary peritoneal macrophages assessed as inhibition of LPS-induced TNFalpha secretion at 5 uM preincubated for 30 mins followed by LPS addition measured after 24 hrs by ELISA relative to control. The settings on record: C57BL/6, Peritoneal macrophage. The data set is classed as functional.

In data set [5] the test system is Peritoneal macrophage. In words: Anti-inflammatory activity in C57BL/6 mouse primary peritoneal macrophages assessed as inhibition of LPS-induced IL-6 secretion at 1 uM preincubated for 30 mins followed by LPS addition measured after 24 hrs by ELISA relative to control. The class given is functional. The settings on record: C57BL/6, Peritoneal macrophage.
Data set [6] concerns Peritoneal macrophage. The experiment in a line: Inhibition of LPS-induced IL-6 mRNA expression in C57BL/6 mouse primary peritoneal macrophages at 10 uM preincubated for 30 mins followed by LPS addition measured after 24 hrs by qRT-PCR analysis. The data set is classed as functional, cell-based. For orientation: In qPCR the cycle at which signal appears reflects the starting amount.

The test system of data set [7] is Peritoneal macrophage. The experiment in a line: Inhibition of LPS-induced TNFalpha mRNA expression in C57BL/6 mouse primary peritoneal macrophages at 10 uM preincubated for 30 mins followed by LPS addition measured after 24 hrs by qRT-PCR analysis. The class given is functional, cell-based.
In data set [8] the test system is Peritoneal macrophage. The experiment in a line: Inhibition of LPS-induced IL-1beta mRNA expression in C57BL/6 mouse primary peritoneal macrophages at 10 uM preincubated for 30 mins followed by LPS addition measured after 24 hrs by qRT-PCR analysis. The class given is functional, cell-based.
Data set [9] concerns Rattus norvegicus. The experiment in a line: Anti-inflammatory activity in Sprague-Dawley rat model of LPS-induced acute lung injury assessed as reduction in morphological changes in lungs at 20 mg/kg, po administered daily for 1 week followed by LPS addition at 30 mins post last dose measured after 6 hrs by hematoxylin and eosin staining based light microscopic assay. The class given is functional, organism-based.

For data set [10], the system named is Rattus norvegicus. The experiment in a line: Anti-inflammatory activity in Sprague-Dawley rat model of LPS-induced acute lung injury assessed as reduction in macrophage mobilization to lungs by measuring tissue content of CD68 at 20 mg/kg, po administered daily for 1 week followed by LPS addition at 30 mins post last dose measured after 6 hrs by DAB staining based light microscopic method. The data set is classed as functional, organism-based.

The subject of data set [11] is Rattus norvegicus. In words: Anti-inflammatory activity in Sprague-Dawley rat model of LPS-induced acute lung injury assessed as reduction in TNFalpha mRNA level in lungs at 20 mg/kg, po administered daily for 1 week followed by LPS addition at 30 mins post last dose measured after 6 hrs by qRT-PCR method. The class given is functional, organism-based.
In data set [12] the test system is Rattus norvegicus. The experiment in a line: Anti-inflammatory activity in Sprague-Dawley rat model of LPS-induced acute lung injury assessed as reduction in IL-6 mRNA level in lungs at 20 mg/kg, po administered daily for 1 week followed by LPS addition at 30 mins post last dose measured after 6 hrs by qRT-PCR method. The data set is classed as functional, organism-based.

The subject of data set [13] is Rattus norvegicus. In words: Anti-inflammatory activity in Sprague-Dawley rat model of LPS-induced acute lung injury assessed as reduction in MCP1 mRNA level in lungs at 20 mg/kg, po administered daily for 1 week followed by LPS addition at 30 mins post last dose measured after 6 hrs by qRT-PCR method. The class given is functional, organism-based.
In data set [14] the test system is Mus musculus. In words: Anti-inflammatory activity in C57BL/6 mouse model of LPS-induced sepsis assessed as survival at 10 mg/kg, iv administered 15 mins prior to LPS treatment measured for 7 days (reference value: 10 to 30%). The following applies: C57BL/6, iv. The data set is classed as functional.
Data set [15] concerns RAW264.7. In words: Binding affinity to MD2 in […] cells assessed as inhibition of LPS-induced TLR4-MD2 complex dimerization at 10 uM by co-immunoprecipitation assay. The data set is classed as cell-based.
The target in data set [16] is Mitogen-activated protein kinase 1 (Homo sapiens) (UniProt P28482). In words: Inhibition of recombinant human full length N-terminal GST-tagged ERK2 (1 to 360 end residues) expressed in Escherichia coli at 10 uM after 1 hr by caliper mobility shift assay relative to control.
Data set [17] shares this target. The experiment in a line: Inhibition of recombinant human full length N-terminal GST-tagged ERK2 (1 to 360 end residues) expressed in Escherichia coli at 1 uM after 1 hr by caliper mobility shift assay relative to control.
Data set [18] deals with Interleukin-1 receptor-associated kinase 1 (Homo sapiens) (UniProt P51617). In words: Inhibition of recombinant human N-terminal GST-tagged IRAK1 (194 to 712 residues) expressed in baculovirus expression system at 10 uM after 1 hr by caliper mobility shift assay relative to control.
Data set [19] has the same target. The experiment in a line: Inhibition of recombinant human N-terminal GST-tagged IRAK1 (194 to 712 residues) expressed in baculovirus expression system at 1 uM after 1 hr by caliper mobility shift assay relative to control.
Data set [20] deals with T1, Inhibitor of nuclear factor kappa-B kinase subunit beta (Homo sapiens) (UniProt O14920).
T1 sequence (whole entry): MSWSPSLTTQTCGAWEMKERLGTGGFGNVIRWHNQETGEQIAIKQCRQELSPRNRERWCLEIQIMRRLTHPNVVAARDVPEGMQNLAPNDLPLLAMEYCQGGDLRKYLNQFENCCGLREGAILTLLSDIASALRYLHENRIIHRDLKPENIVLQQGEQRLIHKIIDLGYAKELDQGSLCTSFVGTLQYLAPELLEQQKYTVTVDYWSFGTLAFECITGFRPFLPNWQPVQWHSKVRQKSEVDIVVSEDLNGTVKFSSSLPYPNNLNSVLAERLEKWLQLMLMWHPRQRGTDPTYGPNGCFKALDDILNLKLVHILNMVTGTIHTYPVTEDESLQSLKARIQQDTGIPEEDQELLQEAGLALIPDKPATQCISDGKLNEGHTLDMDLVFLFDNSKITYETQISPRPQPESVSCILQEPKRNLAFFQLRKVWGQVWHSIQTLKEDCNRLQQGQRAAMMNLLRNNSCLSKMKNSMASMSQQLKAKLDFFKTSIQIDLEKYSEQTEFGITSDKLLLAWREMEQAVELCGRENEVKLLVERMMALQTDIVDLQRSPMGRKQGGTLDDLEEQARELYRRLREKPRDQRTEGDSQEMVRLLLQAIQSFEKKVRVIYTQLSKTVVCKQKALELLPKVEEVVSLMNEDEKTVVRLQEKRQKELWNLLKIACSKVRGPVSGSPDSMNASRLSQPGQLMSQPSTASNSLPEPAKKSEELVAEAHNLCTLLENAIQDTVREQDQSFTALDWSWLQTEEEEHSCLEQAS
In words: Inhibition of recombinant human N-terminal His-tagged IKKbeta (1 to 662 residues) expressed in baculovirus expression system at 10 uM after 1 hr by caliper mobility shift assay relative to control.

The target of data set [21] is T1, Inhibitor of nuclear factor kappa-B kinase subunit beta (Homo sapiens). The experiment in a line: Inhibition of recombinant human N-terminal His-tagged IKKbeta (1 to 662 residues) expressed in baculovirus expression system at 0.1 uM after 1 hr by caliper mobility shift assay relative to control.

Mitogen-activated protein kinase 1 (Homo sapiens), sequence (P28482 whole entry): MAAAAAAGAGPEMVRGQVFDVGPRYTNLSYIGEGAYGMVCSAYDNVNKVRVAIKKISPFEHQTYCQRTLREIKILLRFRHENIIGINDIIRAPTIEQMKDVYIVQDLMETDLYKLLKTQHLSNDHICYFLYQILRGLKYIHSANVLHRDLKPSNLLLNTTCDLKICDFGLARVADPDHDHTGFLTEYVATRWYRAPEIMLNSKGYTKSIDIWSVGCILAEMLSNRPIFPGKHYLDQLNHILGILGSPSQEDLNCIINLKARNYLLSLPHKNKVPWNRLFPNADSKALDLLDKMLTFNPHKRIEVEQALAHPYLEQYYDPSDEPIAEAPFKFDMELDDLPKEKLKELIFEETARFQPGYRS
Interleukin-1 receptor-associated kinase 1 (Homo sapiens), sequence (P51617 whole entry, looked up, the tested form may be a part): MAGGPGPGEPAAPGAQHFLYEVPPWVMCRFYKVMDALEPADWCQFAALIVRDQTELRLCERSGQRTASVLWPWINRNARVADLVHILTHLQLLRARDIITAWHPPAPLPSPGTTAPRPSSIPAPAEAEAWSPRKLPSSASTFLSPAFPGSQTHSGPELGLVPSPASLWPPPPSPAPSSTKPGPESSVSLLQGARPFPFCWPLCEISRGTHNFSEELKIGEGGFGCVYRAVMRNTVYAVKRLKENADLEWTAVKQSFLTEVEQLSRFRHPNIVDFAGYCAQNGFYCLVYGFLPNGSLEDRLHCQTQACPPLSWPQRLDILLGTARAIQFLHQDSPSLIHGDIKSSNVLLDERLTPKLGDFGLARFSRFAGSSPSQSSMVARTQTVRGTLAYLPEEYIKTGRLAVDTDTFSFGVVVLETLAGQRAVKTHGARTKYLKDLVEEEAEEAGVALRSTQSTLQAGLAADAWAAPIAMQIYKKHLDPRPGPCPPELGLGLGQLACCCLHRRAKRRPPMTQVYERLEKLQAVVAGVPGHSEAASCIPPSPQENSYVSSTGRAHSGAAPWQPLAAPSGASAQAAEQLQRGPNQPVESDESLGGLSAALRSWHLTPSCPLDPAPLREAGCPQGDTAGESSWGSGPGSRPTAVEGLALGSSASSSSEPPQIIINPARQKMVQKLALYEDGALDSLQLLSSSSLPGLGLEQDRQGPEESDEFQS

`COc1cc(/C=C2\CN(C)C/C(=C\c3cc(OC)c(OC)c(OC)c3)C2=O)cc(OC)c1OC`: the Stability entry in data set [1] is listed as “Stable”. Further, the inhibition result in data set [2], in data set [6], in data set [7], in data set [8] and in data set [15] was “Active” throughout. Further, the inhibition at 2.5 µM in data set [3] is over 50%. Moreover, the inhibition at 5 µM in data set [4] is over 50%. Also, the inhibition at 1 µM in data set [5] was over 90%. For the same compound, the result in [9], in data set [10], in [11], in data set [12] and in data set [13] was Active. Also, in [14], the survival at 10 mg/kg stood at 90%. Besides, the inhibition in [16] stood at 8.7%; in data set [17], 13.3%; in data set [18], 0.5%; in [19], 8.7%; in [20], 12.8%; in [21], 21.1%.

For the compound `COc1cc(/C=C2\COC/C(=C\c3cc(OC)c(OC)c(OC)c3)C2=O)cc(OC)c1OC`, the Stability result in [1] was “Stable”. Further, the inhibition entry in data set [2], in [6], in [7], in [8] and in data set [15] was “Active” in each case. Moreover, the inhibition at 2.5 µM in data set [3] is over 50%. The inhibition at 5 µM in [4] is over 50%. In addition, the inhibition at 1 µM in data set [5] was over 90%. Further, the outcome in data set [9], in data set [10], in [11], in data set [12] and in data set [13] was Active. The survival at 10 mg/kg in [14] came out at 70%. The inhibition was 7.4% in data set [16]; 10.4% in [17]; 3.6% in [18]; 8.7% in [19]; 7.9% in data set [20]; 15.7% in [21].
